Reference: paper PMC5218480 (PLoS ONE, 2017)

Tested on: MV-4-11 cells
Test: Gene expression microarray analysis (Affymetrix PrimeView) and GSEA
Format: cell-based, human
Parameters: RFU PODN (11730768_x_at) / Fold change /veh PODN (11730768_x_at) / RFU LINC00158 (11744669_a_at) / Fold change /veh LINC00158 (11744669_a_at) / RFU DUSP10 (11751237_a_at) / Fold change /veh DUSP10 (11751237_a_at) / RFU ID3 (11757404_x_at) / Fold change /veh ID3 (11757404_x_at) / RFU PLEKHG5 (11737974_s_at) / Fold change /veh PLEKHG5 (11737974_s_at) / RFU LRRC4B (11730491_at) / Fold change /veh LRRC4B (11730491_at) / RFU GIMAP4 (11747438_a_at) / Fold change /veh GIMAP4 (11747438_a_at) / RFU KRT8 (11758183_x_at) / Fold change /veh KRT8 (11758183_x_at) / RFU CNN1 (11734310_a_at) / Fold change /veh CNN1 (11734310_a_at) / RFU VPS37D (11726825_at) / Fold change /veh VPS37D (11726825_at) / RFU C10orf10 (11716522_x_at) / Fold change /veh C10orf10 (11716522_x_at) / RFU KIR2DL2 /// KIR2DL4 /// KIR2DL5A /// KIR2DL5B /// KIR2DS1 /// KIR2DS2 /// KIR2DS3 /// KIR2DS4 /// KIR3DL3 /// KIR3DL3 /// KIR3DS1 (11738374_at) / Fold change /veh KIR2DL2 /// KIR2DL4 /// KIR2DL5A /// KIR2DL5B /// KIR2DS1 /// KIR2DS2 /// KIR2DS3 /// KIR2DS4 /// KIR3DL3 /// KIR3DL3 /// KIR3DS1 (11738374_at) / RFU C1QL1 (11718748_at) / Fold change /veh C1QL1 (11718748_at) / RFU TMPRSS4 (11747572_a_at) / Fold change /veh TMPRSS4 (11747572_a_at) / RFU HAMP (11756126_x_at) / Fold change /veh HAMP (11756126_x_at) / RFU RNFT2 (11725882_a_at) / Fold change /veh RNFT2 (11725882_a_at) / RFU NR4A2 (11747474_a_at) / Fold change /veh NR4A2 (11747474_a_at) / RFU ABCC12 (11746883_a_at) / Fold change /veh ABCC12 (11746883_a_at) / RFU TMEM136 (11760407_x_at) / Fold change /veh TMEM136 (11760407_x_at) / RFU CLDN22 /// WWC2 (11732394_at) / Fold change /veh CLDN22 /// WWC2 (11732394_at) / RFU HLA-DPB1 (11760878_x_at) / Fold change /veh HLA-DPB1 (11760878_x_at) / RFU SPINT1 (11716480_a_at) / Fold change /veh SPINT1 (11716480_a_at) / RFU GAP43 (11754022_s_at) / Fold change /veh GAP43 (11754022_s_at) / RFU A4GNT (11735810_at) / Fold change /veh A4GNT (11735810_at) / RFU PRB3 (11715151_x_at) / Fold change /veh PRB3 (11715151_x_at) / RFU TUBB4B (11761932_at) / Fold change /veh TUBB4B (11761932_at) / RFU CAPN14 (11732068_a_at) / Fold change /veh CAPN14 (11732068_a_at) / RFU TMCC2 (11721928_a_at) / Fold change /veh TMCC2 (11721928_a_at) / RFU IRGQ (11745062_a_at) / Fold change /veh IRGQ (11745062_a_at) / RFU FAM174B (11720279_a_at) / Fold change /veh FAM174B (11720279_a_at) / RFU TMPRSS4 (11748680_a_at) / Fold change /veh TMPRSS4 (11748680_a_at) / RFU FAM212B (11763350_a_at) / Fold change /veh FAM212B (11763350_a_at) / RFU PLEKHG5 (11743358_a_at) / Fold change /veh PLEKHG5 (11743358_a_at) / RFU ZSCAN30 (11745921_a_at) / Fold change /veh ZSCAN30 (11745921_a_at) / RFU CMKLR1 (11741424_a_at) / Fold change /veh CMKLR1 (11741424_a_at) / RFU LOC101060620 /// MAPK8IP1 (11723275_at) / Fold change /veh LOC101060620 /// MAPK8IP1 (11723275_at) / RFU SPTSSB (11747773_x_at) / Fold change /veh SPTSSB (11747773_x_at) / RFU PRSS12 (11739890_at) / Fold change /veh PRSS12 (11739890_at) / RFU BIN1 (11741810_x_at) / Fold change /veh BIN1 (11741810_x_at) / RFU WNT11 (11732464_a_at) / Fold change /veh WNT11 (11732464_a_at) / RFU C10orf10 (11716521_a_at) / Fold change /veh C10orf10 (11716521_a_at) / RFU C5orf56 (11738089_at) / Fold change /veh C5orf56 (11738089_at) / RFU CYB561 (11721691_x_at) / Fold change /veh CYB561 (11721691_x_at) / RFU ANKRD19P (11752326_a_at) / Fold change /veh ANKRD19P (11752326_a_at) / RFU OR2T12 /// OR2T33 /// OR2T8 (11738714_s_at) / Fold change /veh OR2T12 /// OR2T33 /// OR2T8 (11738714_s_at) / RFU VCAN (11748164_a_at) / Fold change /veh VCAN (11748164_a_at) / RFU JSRP1 (11732532_at) / Fold change /veh JSRP1 (11732532_at) / RFU KRTAP10-11 (11738290_x_at) / Fold change /veh KRTAP10-11 (11738290_x_at) / RFU MYO3A (11730013_a_at) / Fold change /veh MYO3A (11730013_a_at) / RFU EBF3 (11725865_a_at) / Fold change /veh EBF3 (11725865_a_at) / RFU CAMK2N1 (11719241_x_at) / Fold change /veh CAMK2N1 (11719241_x_at) / RFU C5orf56 (11738088_a_at) / Fold change /veh C5orf56 (11738088_a_at) / RFU OLFML3 (11715873_a_at) / Fold change /veh OLFML3 (11715873_a_at) / RFU LOC100653217 /// NTM (11731650_a_at) / Fold change /veh LOC100653217 /// NTM (11731650_a_at) / RFU MAPK11 (11762145_a_at) / Fold change /veh MAPK11 (11762145_a_at) / RFU FIZ1 (11724087_x_at) / Fold change /veh FIZ1 (11724087_x_at) / RFU OASL (11726364_x_at) / Fold change /veh OASL (11726364_x_at) / RFU SOX15 (11748057_x_at) / Fold change /veh SOX15 (11748057_x_at) / RFU CD79A (11719716_a_at) / Fold change /veh CD79A (11719716_a_at) / RFU HIST1H1D (11736915_at) / Fold change /veh HIST1H1D (11736915_at) / RFU CASKIN2 (11723855_a_at) / Fold change /veh CASKIN2 (11723855_a_at) / RFU LOC730098 (11760151_x_at) / Fold change /veh LOC730098 (11760151_x_at) / RFU OR4N2 (11742367_at) / Fold change /veh OR4N2 (11742367_at) / RFU PRRT2 (11749266_a_at) / Fold change /veh PRRT2 (11749266_a_at) / RFU SNX32 (11753110_a_at) / Fold change /veh SNX32 (11753110_a_at) / RFU CDHR5 (11726645_a_at) / Fold change /veh CDHR5 (11726645_a_at) / RFU RCAN1 (11760418_a_at) / Fold change /veh RCAN1 (11760418_a_at) / RFU FAM167A (11723789_a_at) / Fold change /veh FAM167A (11723789_a_at) / RFU FAM26E (11764081_at) / Fold change /veh FAM26E (11764081_at) / RFU ISYNA1 (11749810_s_at) / Fold change /veh ISYNA1 (11749810_s_at) / RFU ACY1 (11761880_at) / Fold change /veh ACY1 (11761880_at) / RFU 11764098_at / Fold change /veh 11764098_at / RFU SAMD14 (11745864_x_at) / Fold change /veh SAMD14 (11745864_x_at) / RFU NPB (11741838_a_at) / Fold change /veh NPB (11741838_a_at) / RFU TMPRSS6 (11731388_a_at) / Fold change /veh TMPRSS6 (11731388_a_at) / RFU KRTAP10-2 (11738614_at) / Fold change /veh KRTAP10-2 (11738614_at) / RFU ARHGAP8 /// PRR5-ARHGAP8 (11727945_x_at) / Fold change /veh ARHGAP8 /// PRR5-ARHGAP8 (11727945_x_at) / RFU KRTAP5-7 /// NADSYN1 (11734609_at) / Fold change /veh KRTAP5-7 /// NADSYN1 (11734609_at) / RFU RASL12 (11751679_a_at) / Fold change /veh RASL12 (11751679_a_at) / RFU CDKN2B (11736163_a_at) / Fold change /veh CDKN2B (11736163_a_at) / RFU PRF1 (11729649_at) / Fold change /veh PRF1 (11729649_at) / RFU, ZNF638 /// ZNF638-IT1 / Fold change vs veh, ZNF638 /// ZNF638-IT1 / RFU, PANK3 / Fold change vs veh, PANK3 / RFU, SH3YL1 / Fold change vs veh, SH3YL1 / RFU, ZEB2 / Fold change vs veh, ZEB2 / RFU, NRIP1 / Fold change vs veh, NRIP1 / RFU, PTTG1IP / Fold change vs veh, PTTG1IP / RFU, CAPN2 / Fold change vs veh, CAPN2 / RFU, MED14 / Fold change vs veh, MED14 / RFU, SNORA58 / Fold change vs veh, SNORA58 / RFU, C1orf63 / Fold change vs veh, C1orf63 / RFU, LRRFIP1 / Fold change vs veh, LRRFIP1 / RFU, NDUFAF7 / Fold change vs veh, NDUFAF7 / RFU, SLC12A2 / Fold change vs veh, SLC12A2 / RFU, IBTK / Fold change vs veh, IBTK / RFU, ESF1 / Fold change vs veh, ESF1 / Fold change vs veh, TMEM50B / RFU, TAOK1 / Fold change vs veh, TAOK1 / RFU, ACBD3 / Fold change vs veh, ACBD3 / RFU, TMA16 / Fold change vs veh, TMA16 / RFU, RWDD3 / Fold change vs veh, RWDD3 / RFU, BCAT1 / Fold change vs veh, BCAT1 / RFU, EDEM3 / Fold change vs veh, EDEM3 / RFU, TMEM33 / Fold change vs veh, TMEM33 / RFU, WDR75 / Fold change vs veh, WDR75 / RFU, AHCTF1 / Fold change vs veh, AHCTF1 / RFU, TFRC / Fold change vs veh, TFRC / RFU, ZDHHC17 / Fold change vs veh, ZDHHC17 / RFU, NOM1 / Fold change vs veh, NOM1 / RFU, ARL8B / Fold change vs veh, ARL8B / RFU, ZBTB11 / Fold change vs veh, ZBTB11 / RFU, TAMM41 / Fold change vs veh, TAMM41 / RFU, KIAA1704 /// LOC100996395 / Fold change vs veh, KIAA1704 /// LOC100996395 / RFU, ING1 / Fold change vs veh, ING1 / RFU, TRMT61B / Fold change vs veh, TRMT61B / RFU, FUBP3 / Fold change vs veh, FUBP3 / RFU, TP53 / Fold change vs veh, TP53 / RFU, TNKS2 / Fold change vs veh, TNKS2 / RFU, ZFP14 / Fold change vs veh, ZFP14 / RFU, ACTR2 / Fold change vs veh, ACTR2 / RFU, PPP3R1 / Fold change vs veh, PPP3R1 / RFU, PIK3R1 / Fold change vs veh, PIK3R1 / RFU, HNRNPA1 / Fold change vs veh, HNRNPA1 / RFU, RNF170 / Fold change vs veh, RNF170 / RFU, ZNF28 / Fold change vs veh, ZNF28 / RFU, RNGTT / Fold change vs veh, RNGTT / RFU, OGT / Fold change vs veh, OGT / RFU, BRD1 / Fold change vs veh, BRD1 / RFU, MARS / Fold change vs veh, MARS / RFU, ZNF655 / Fold change vs veh, ZNF655 / RFU, FAHD1 / Fold change vs veh, FAHD1 / RFU, BDP1 / Fold change vs veh, BDP1 / RFU, LRRCC1 / Fold change vs veh, LRRCC1 / RFU, ARID1A / Fold change vs veh, ARID1A / RFU, ZNF146 / Fold change vs veh, ZNF146 / RFU, ZNF330 / Fold change vs veh, ZNF330 / RFU, GPN3 / Fold change vs veh, GPN3 / RFU, C9orf123 / Fold change vs veh, C9orf123 / RFU, N4BP2L2 / Fold change vs veh, N4BP2L2 / RFU, ARFIP1 / Fold change vs veh, ARFIP1 / RFU, FAM179B / Fold change vs veh, FAM179B / RFU, BCL10 / Fold change vs veh, BCL10 / RFU, UHRF1BP1L / Fold change vs veh, UHRF1BP1L / RFU, BET1 / Fold change vs veh, BET1 / RFU, CNOT2 / Fold change vs veh, CNOT2 / RFU, ZNF268 / Fold change vs veh, ZNF268 / Fold change vs veh, ZNF507 / RFU, DGCR2 / Fold change vs veh, DGCR2 / RFU, WDSUB1 / Fold change vs veh, WDSUB1 / Fold change vs veh, HSP90B1 /// MIR3652 / RFU, ADSS / Fold change vs veh, ADSS / RFU, GK / Fold change vs veh, GK / RFU, ZNF148 / Fold change vs veh, ZNF148 / RFU, TAF9 / Fold change vs veh, TAF9 / RFU, SLC1A5 / Fold change vs veh, SLC1A5 / RFU, SLMO2 / Fold change vs veh, SLMO2 / RFU, ABCC4 / Fold change vs veh, ABCC4 / RFU, LOC101060439 /// RAP1B / Fold change vs veh, LOC101060439 /// RAP1B / RFU, RFX7 / Fold change vs veh, RFX7 / RFU, GTPBP10 / Fold change vs veh, GTPBP10 / RFU, CNEP1R1 / Fold change vs veh, CNEP1R1 / RFU, BIVM-ERCC5 /// ERCC5 / Fold change vs veh, BIVM-ERCC5 /// ERCC5 / RFU, ILF3 / Fold change vs veh, ILF3 / RFU 11762660_at / Fold change /veh 11762660_at / RFU VCAN (11757783_s_at) / Fold change /veh VCAN (11757783_s_at) / RFU DDX43 (11728927_at) / Fold change /veh DDX43 (11728927_at) / RFU KRT8 (11758188_x_at) / Fold change /veh KRT8 (11758188_x_at) / RFU NKD1 (11759106_at) / Fold change /veh NKD1 (11759106_at) / RFU SRD5A1 (11742802_a_at) / Fold change /veh SRD5A1 (11742802_a_at) / RFU TPSAB1 /// TPSB2 (11721975_s_at) / Fold change /veh TPSAB1 /// TPSB2 (11721975_s_at) / RFU GSTM3 (11746129_a_at) / Fold change /veh GSTM3 (11746129_a_at) / RFU IL23R (11737362_x_at) / Fold change /veh IL23R (11737362_x_at) / RFU TMEM51 (11727254_a_at) / Fold change /veh TMEM51 (11727254_a_at) / RFU PIWIL2 (11732686_x_at) / Fold change /veh PIWIL2 (11732686_x_at) / RFU ORM1 (11744905_x_at) / Fold change /veh ORM1 (11744905_x_at) / RFU CCDC152 (11743942_at) / Fold change /veh CCDC152 (11743942_at) / RFU ECM1 (11717891_a_at) / Fold change /veh ECM1 (11717891_a_at) / RFU IL23R (11748794_a_at) / Fold change /veh IL23R (11748794_a_at) / RFU TNFAIP8L3 (11732012_x_at) / Fold change /veh TNFAIP8L3 (11732012_x_at) / RFU MBOAT4 (11741988_at) / Fold change /veh MBOAT4 (11741988_at) / RFU 11764193_at / Fold change /veh 11764193_at / RFU TMEM53 (11763286_at) / Fold change /veh TMEM53 (11763286_at) / RFU MAGEB2 (11727129_at) / Fold change /veh MAGEB2 (11727129_at) / RFU TMEM200A (11744735_a_at) / Fold change /veh TMEM200A (11744735_a_at) / RFU CCDC152 (11751479_a_at) / Fold change /veh CCDC152 (11751479_a_at) / RFU FAM211A (11726209_a_at) / Fold change /veh FAM211A (11726209_a_at) / RFU RGS16 (11746705_a_at) / Fold change /veh RGS16 (11746705_a_at) / RFU VCAN (11755009_s_at) / Fold change /veh VCAN (11755009_s_at) / RFU RHOB (11743442_s_at) / Fold change /veh RHOB (11743442_s_at) / RFU RGS16 (11720943_a_at) / Fold change /veh RGS16 (11720943_a_at) / RFU RGS16 (11720944_at) / Fold change /veh RGS16 (11720944_at) / RFU, VPS4B / Fold change vs veh, VPS4B / RFU, CREB1 / Fold change vs veh, CREB1 / RFU, DNAJC13 / Fold change vs veh, DNAJC13 / RFU, GNAQ / Fold change vs veh, GNAQ / RFU, CDK5R1 / Fold change vs veh, CDK5R1 / RFU, ZRANB3 / Fold change vs veh, ZRANB3 / RFU, CUL4A / Fold change vs veh, CUL4A / RFU, CCNY / Fold change vs veh, CCNY / RFU, UFL1 / Fold change vs veh, UFL1 / RFU, COG3 / Fold change vs veh, COG3 / RFU, DIAPH2 / Fold change vs veh, DIAPH2 / RFU, SKA2 / Fold change vs veh, SKA2 / RFU, AFF3 / Fold change vs veh, AFF3 / RFU, LMF1 / Fold change vs veh, LMF1 / RFU, IPO11 / Fold change vs veh, IPO11 / RFU, DFFB / Fold change vs veh, DFFB / RFU, FOXP1 / Fold change vs veh, FOXP1 / RFU, CARD8 / Fold change vs veh, CARD8 / RFU, STRN3 / Fold change vs veh, STRN3 / RFU, ADK / Fold change vs veh, ADK / RFU, RASSF2 / Fold change vs veh, RASSF2 / RFU, WIPF1 / Fold change vs veh, WIPF1 / RFU, LARP1B / Fold change vs veh, LARP1B / RFU, RASA1 / Fold change vs veh, RASA1 / RFU, RB1 / Fold change vs veh, RB1 / RFU, PPFIA1 / Fold change vs veh, PPFIA1 / RFU, MAT2A / Fold change vs veh, MAT2A / RFU, CCT5 / Fold change vs veh, CCT5 / RFU, WDR92 / Fold change vs veh, WDR92 / RFU, CUX1 / Fold change vs veh, CUX1 / RFU, TTC7A / Fold change vs veh, TTC7A / RFU, TMEM135 / Fold change vs veh, TMEM135 / RFU, DEPTOR / Fold change vs veh, DEPTOR / RFU, CPM / Fold change vs veh, CPM / RFU, DNAJB6 / Fold change vs veh, DNAJB6 / RFU, CACNA2D3 / Fold change vs veh, CACNA2D3 / RFU, DTX4 / Fold change vs veh, DTX4 / RFU, TFCP2 / Fold change vs veh, TFCP2 / RFU, GMCL1 /// GMCL1P1 / Fold change vs veh, GMCL1 /// GMCL1P1 / RFU, AEBP2 / Fold change vs veh, AEBP2 / RFU, SNHG1 /// SNORD22 /// SNORD25 /// SNORD26 /// SNORD27 /// SNORD28 /// SNORD29 /// SNORD31 / Fold change vs veh, SNHG1 /// SNORD22 /// SNORD25 /// SNORD26 /// SNORD27 /// SNORD28 /// SNORD29 /// SNORD31 / Fold change (Aza/veh), C12orf56 (ProbeSet 11735607_a_at) / Fold change (ACY-1035/veh), C12orf56 (ProbeSet 11735607_a_at) / Fold change (Aza/veh), FGFR1OP (ProbeSet 11751329_s_at) / Fold change (ACY-1035/veh), FGFR1OP (ProbeSet 11751329_s_at) / Fold change (Aza/veh), VPS36 (ProbeSet 11739960_a_at) / Fold change (ACY-1035/veh), VPS36 (ProbeSet 11739960_a_at) / RFU SYPL1 (11715823_x_at) / Fold change /veh SYPL1 (11715823_x_at) / RFU IGFBP7 (11715501_s_at) / Fold change /veh IGFBP7 (11715501_s_at) / RFU REEP3 (11722064_at) / Fold change /veh REEP3 (11722064_at) / RFU IGLL1 (11728026_x_at) / Fold change /veh IGLL1 (11728026_x_at): dose or concentration left out as unconfirmed
Details: ProbeSet 11722463_a_at; LIST B

Compound: Nc1ccc(-c2cccs2)cc1NC(=O)c1ccc2c(c1)cc(C1CC1)n2CCN1CCOCC1 [ACY-1035]
- Fold change vs veh, TNKS2: 0.96
